# Source: PMC7578299, “The antiviral effects of baloxavir marboxil against influenza A virus infection in ferrets” (Influenza and Other Respiratory Viruses, 2020)
# Where two headings read alike, the source gives them in different places.
# Assays:
# [1] = tested on: influenza A/Kadoma/3/2006 strain; conditions: A/Kadoma/3/2006, yield reduction assay, cited from earlier work
# [2] = parameters: method as in Koshimichi et al., J Pharm Sci 2019;108:1896–1904; conditions: Japanese patients, ref Koshimichi et al., J Pharm Sci 2019;108:1896–1904, cited from earlier work
# [3] = Simulated plasma concentration of BXA (non-parametric superposition, Phoenix WinNonlin); parameters: species or system ferret; conditions: for terminal elimination half-life extrapolated from mean plasma concentrations between 6 and 24 hours: four ferrets; for Ratio of BXA concentration to EC90: EC90 0.42 ng/mL; for Ratio of BXA concentration to Target concentration: target 6.85 ng/mL
# From the text: Plasma concentrations of BXA after dosing of BXM twice daily were estimated using the non‐parametric superposition function in Phoenix WinNonlin software (https://onlinehelp.certara.com/phoenix/8.2/topics/nonparasuper.htm) based on the mean plasma concentrations of BXA following single‐dose administration of BXM. Dosing type was used as “Variable.” The computation method used for interpolation and extrapolation of untransformed data was selected as logarithm (Log).
# [4] = two doses BXM 10 mg/kg, 24 hours after first dosing
# [5] = two doses BXM 10 mg/kg, 48 hours after first dosing
# [6] = two doses BXM 30 mg/kg, 24 hours after first dosing
# [7] = two doses BXM 30 mg/kg, 48 hours after first dosing
compound,measurement,setting,value
"O=C1c2c(O)c(=O)ccn2N([C@@H]2c3ccccc3SCc3c2ccc(F)c3F)[C@@H]2COCCN12 [BXA, baloxavir acid]",90% effective concentration (EC90),[1],0.42 ng/mL
same,EC90,[1]; read-out: 90% effective concentration (EC90),0.88 nM
same,plasma concentration at 24 hours,[2]; BXM 10 mg,15.1 (range 6.38‐29.0) ng/mL
same,plasma concentration at 24 hours,[2]; BXM 40 mg,61.5 (range 27.9‐118) ng/mL
same,terminal elimination half-life extrapolated from mean plasma concentrations between 6 and 24 hours,[3]; BXM 10 mg/kg,6.57 h
same,terminal elimination half-life extrapolated from mean plasma concentrations between 6 and 24 hours,[3]; BXM 30 mg/kg,4.08 h
same,Simulated plasma concentration,"[3]; BXM single dose 10 mg/kg, 2.5 h",48.5 ng/mL
same,Simulated plasma concentration,"[3]; BXM single dose 10 mg/kg, 3 h",42.6 ng/mL
same,Simulated plasma concentration,"[3]; BXM single dose 10 mg/kg, 3.5 h",37.5 ng/mL
same,Simulated plasma concentration,"[3]; BXM single dose 10 mg/kg, 4 h",33.0 ng/mL
same,Simulated plasma concentration,"[3]; BXM single dose 10 mg/kg, 4.5 h",29.1 ng/mL
same,Simulated plasma concentration,"[3]; BXM single dose 10 mg/kg, 5 h",25.7 ng/mL
same,Simulated plasma concentration,"[3]; BXM single dose 10 mg/kg, 5.5 h",22.7 ng/mL
same,Simulated plasma concentration,"[3]; BXM single dose 10 mg/kg, 6 h",20.0 ng/mL
same,Simulated plasma concentration,"[3]; BXM single dose 10 mg/kg, 6.5 h",19.1 ng/mL
same,Simulated plasma concentration,"[3]; BXM single dose 10 mg/kg, 7 h",18.3 ng/mL
same,Simulated plasma concentration,"[3]; BXM single dose 10 mg/kg, 7.5 h",17.5 ng/mL
same,Simulated plasma concentration,"[3]; BXM single dose 10 mg/kg, 8 h",16.7 ng/mL
same,Simulated plasma concentration,"[3]; BXM single dose 10 mg/kg, 8.5 h",15.8 ng/mL
same,Simulated plasma concentration,"[3]; BXM single dose 10 mg/kg, 9 h",15.0 ng/mL
same,Simulated plasma concentration,"[3]; BXM single dose 10 mg/kg, 9.5 h",14.2 ng/mL
same,Simulated plasma concentration,"[3]; BXM single dose 10 mg/kg, 10 h",13.5 ng/mL
same,Simulated plasma concentration,"[3]; BXM single dose 10 mg/kg, 10.5 h",12.8 ng/mL
same,Simulated plasma concentration,"[3]; BXM single dose 10 mg/kg, 11 h",12.1 ng/mL
same,Simulated plasma concentration,"[3]; BXM single dose 10 mg/kg, 11.5 h",11.5 ng/mL
same,Simulated plasma concentration,"[3]; BXM single dose 10 mg/kg, 12 h",10.9 ng/mL
same,Simulated plasma concentration,"[3]; BXM single dose 10 mg/kg, 12.5 h",10.3 ng/mL
same,Simulated plasma concentration,"[3]; BXM single dose 10 mg/kg, 13 h",9.80 ng/mL
same,Simulated plasma concentration,"[3]; BXM single dose 10 mg/kg, 13.5 h",9.29 ng/mL
same,Simulated plasma concentration,"[3]; BXM single dose 10 mg/kg, 47.5 h",0.254 ng/mL
same,Simulated plasma concentration,"[3]; BXM single dose 10 mg/kg, 48 h",0.241 ng/mL
same,Simulated plasma concentration,"[3]; BXM single dose 30 mg/kg, 2.5 h",316 ng/mL
same,Simulated plasma concentration,"[3]; BXM single dose 30 mg/kg, 3 h",292 ng/mL
same,Simulated plasma concentration,"[3]; BXM single dose 30 mg/kg, 3.5 h",269 ng/mL
same,Simulated plasma concentration,"[3]; BXM single dose 30 mg/kg, 4 h",248 ng/mL
same,Simulated plasma concentration,"[3]; BXM single dose 30 mg/kg, 4.5 h",235.6 ng/mL
same,Simulated plasma concentration,"[3]; BXM single dose 30 mg/kg, 5 h",223.8 ng/mL
same,Simulated plasma concentration,"[3]; BXM single dose 30 mg/kg, 5.5 h",212.6 ng/mL
same,Simulated plasma concentration,"[3]; BXM single dose 30 mg/kg, 6 h",202 ng/mL
same,Simulated plasma concentration,"[3]; BXM single dose 30 mg/kg, 6.5 h",190.3 ng/mL
same,Simulated plasma concentration,"[3]; BXM single dose 30 mg/kg, 7 h",179.2 ng/mL
same,Simulated plasma concentration,"[3]; BXM single dose 30 mg/kg, 7.5 h",168.8 ng/mL
same,Simulated plasma concentration,"[3]; BXM single dose 30 mg/kg, 8 h",159 ng/mL
same,Simulated plasma concentration,"[3]; BXM single dose 30 mg/kg, 8.5 h",146 ng/mL
same,Simulated plasma concentration,"[3]; BXM single dose 30 mg/kg, 9 h",134 ng/mL
same,Simulated plasma concentration,"[3]; BXM single dose 30 mg/kg, 9.5 h",123 ng/mL
same,Simulated plasma concentration,"[3]; BXM single dose 30 mg/kg, 10 h",112 ng/mL
same,Simulated plasma concentration,"[3]; BXM single dose 30 mg/kg, 10.5 h",103 ng/mL
same,Simulated plasma concentration,"[3]; BXM single dose 30 mg/kg, 11 h",94.5 ng/mL
same,Simulated plasma concentration,"[3]; BXM single dose 30 mg/kg, 11.5 h",86.6 ng/mL
same,Simulated plasma concentration,"[3]; BXM single dose 30 mg/kg, 12 h",79.4 ng/mL
same,Simulated plasma concentration,"[3]; BXM single dose 30 mg/kg, 12.5 h",72.8 ng/mL
same,Simulated plasma concentration,"[3]; BXM single dose 30 mg/kg, 13 h",66.8 ng/mL
same,Simulated plasma concentration,"[3]; BXM single dose 30 mg/kg, 13.5 h",61.2 ng/mL
same,Simulated plasma concentration,"[3]; BXM single dose 30 mg/kg, 47.5 h",0.184 ng/mL
same,Simulated plasma concentration,"[3]; BXM single dose 30 mg/kg, 48 h",0.169 ng/mL
same,Simulated plasma concentration,"[3]; BXM two doses 10 mg/kg (0 and 12 h), 2.5 h",48.5 ng/mL
same,Simulated plasma concentration,"[3]; BXM two doses 10 mg/kg (0 and 12 h), 3 h",42.6 ng/mL
same,Simulated plasma concentration,"[3]; BXM two doses 10 mg/kg (0 and 12 h), 3.5 h",37.5 ng/mL
same,Simulated plasma concentration,"[3]; BXM two doses 10 mg/kg (0 and 12 h), 4 h",33.0 ng/mL
same,Simulated plasma concentration,"[3]; BXM two doses 10 mg/kg (0 and 12 h), 4.5 h",29.1 ng/mL
same,Simulated plasma concentration,"[3]; BXM two doses 10 mg/kg (0 and 12 h), 5 h",25.7 ng/mL
same,Simulated plasma concentration,"[3]; BXM two doses 10 mg/kg (0 and 12 h), 5.5 h",22.7 ng/mL
same,Simulated plasma concentration,"[3]; BXM two doses 10 mg/kg (0 and 12 h), 6 h",20.0 ng/mL
same,Simulated plasma concentration,"[3]; BXM two doses 10 mg/kg (0 and 12 h), 6.5 h",19.1 ng/mL
same,Simulated plasma concentration,"[3]; BXM two doses 10 mg/kg (0 and 12 h), 7 h",18.3 ng/mL
same,Simulated plasma concentration,"[3]; BXM two doses 10 mg/kg (0 and 12 h), 7.5 h",17.5 ng/mL
same,Simulated plasma concentration,"[3]; BXM two doses 10 mg/kg (0 and 12 h), 8 h",16.7 ng/mL
same,Simulated plasma concentration,"[3]; BXM two doses 10 mg/kg (0 and 12 h), 8.5 h",15.8 ng/mL
same,Simulated plasma concentration,"[3]; BXM two doses 10 mg/kg (0 and 12 h), 9 h",15.0 ng/mL
same,Simulated plasma concentration,"[3]; BXM two doses 10 mg/kg (0 and 12 h), 9.5 h",14.2 ng/mL
same,Simulated plasma concentration,"[3]; BXM two doses 10 mg/kg (0 and 12 h), 10 h",13.5 ng/mL
same,Simulated plasma concentration,"[3]; BXM two doses 10 mg/kg (0 and 12 h), 10.5 h",12.8 ng/mL
same,Simulated plasma concentration,"[3]; BXM two doses 10 mg/kg (0 and 12 h), 11 h",12.1 ng/mL
same,Simulated plasma concentration,"[3]; BXM two doses 10 mg/kg (0 and 12 h), 11.5 h",11.5 ng/mL
same,Simulated plasma concentration,"[3]; BXM two doses 10 mg/kg (0 and 12 h), 12 h (dosing)",10.9 ng/mL
same,Simulated plasma concentration,"[3]; BXM two doses 10 mg/kg (0 and 12 h), 12.5 h",43.5 ng/mL
same,Simulated plasma concentration,"[3]; BXM two doses 10 mg/kg (0 and 12 h), 13 h",65.9 ng/mL
same,Simulated plasma concentration,"[3]; BXM two doses 10 mg/kg (0 and 12 h), 13.5 h",64.9 ng/mL
same,Simulated plasma concentration,"[3]; BXM two doses 10 mg/kg (0 and 12 h), 24 h",13.9 ng/mL
same,Simulated plasma concentration,"[3]; BXM two doses 10 mg/kg (0 and 12 h), 47.5 h",1.16 ng/mL
same,Simulated plasma concentration,"[3]; BXM two doses 10 mg/kg (0 and 12 h), 48 h",1.10 ng/mL
same,Simulated plasma concentration,"[3]; BXM two doses 30 mg/kg (0 and 12 h), 2.5 h",316 ng/mL
same,Simulated plasma concentration,"[3]; BXM two doses 30 mg/kg (0 and 12 h), 3 h",292 ng/mL
same,Simulated plasma concentration,"[3]; BXM two doses 30 mg/kg (0 and 12 h), 3.5 h",269 ng/mL
same,Simulated plasma concentration,"[3]; BXM two doses 30 mg/kg (0 and 12 h), 4 h",248 ng/mL
same,Simulated plasma concentration,"[3]; BXM two doses 30 mg/kg (0 and 12 h), 4.5 h",236 ng/mL
same,Simulated plasma concentration,"[3]; BXM two doses 30 mg/kg (0 and 12 h), 5 h",224 ng/mL
same,Simulated plasma concentration,"[3]; BXM two doses 30 mg/kg (0 and 12 h), 5.5 h",213 ng/mL
same,Simulated plasma concentration,"[3]; BXM two doses 30 mg/kg (0 and 12 h), 6 h",202 ng/mL
same,Simulated plasma concentration,"[3]; BXM two doses 30 mg/kg (0 and 12 h), 6.5 h",190 ng/mL
same,Simulated plasma concentration,"[3]; BXM two doses 30 mg/kg (0 and 12 h), 7 h",179 ng/mL
same,Simulated plasma concentration,"[3]; BXM two doses 30 mg/kg (0 and 12 h), 7.5 h",169 ng/mL
same,Simulated plasma concentration,"[3]; BXM two doses 30 mg/kg (0 and 12 h), 8 h",159 ng/mL
same,Simulated plasma concentration,"[3]; BXM two doses 30 mg/kg (0 and 12 h), 8.5 h",146 ng/mL
same,Simulated plasma concentration,"[3]; BXM two doses 30 mg/kg (0 and 12 h), 9 h",134 ng/mL
same,Simulated plasma concentration,"[3]; BXM two doses 30 mg/kg (0 and 12 h), 9.5 h",123 ng/mL
same,Simulated plasma concentration,"[3]; BXM two doses 30 mg/kg (0 and 12 h), 10 h",112 ng/mL
same,Simulated plasma concentration,"[3]; BXM two doses 30 mg/kg (0 and 12 h), 10.5 h",103 ng/mL
same,Simulated plasma concentration,"[3]; BXM two doses 30 mg/kg (0 and 12 h), 11 h",94.5 ng/mL
same,Simulated plasma concentration,"[3]; BXM two doses 30 mg/kg (0 and 12 h), 11.5 h",86.6 ng/mL
same,Simulated plasma concentration,"[3]; BXM two doses 30 mg/kg (0 and 12 h), 12 h (dosing)",79.4 ng/mL
same,Simulated plasma concentration,"[3]; BXM two doses 30 mg/kg (0 and 12 h), 12.5 h",208 ng/mL
same,Simulated plasma concentration,"[3]; BXM two doses 30 mg/kg (0 and 12 h), 13 h",405 ng/mL
same,Simulated plasma concentration,"[3]; BXM two doses 30 mg/kg (0 and 12 h), 47.5 h",1.60 ng/mL
same,Simulated plasma concentration,"[3]; BXM two doses 30 mg/kg (0 and 12 h), 48 h",1.47 ng/mL
same,Ratio of BXA concentration to EC90,[3]; [4],× 33.2
same,Ratio of BXA concentration to Target concentration,[3]; [4],× 2.0
same,Ratio of BXA concentration to EC90,[3]; [5],× 2.6
same,Ratio of BXA concentration to Target concentration,[3]; [5],× 0.16
same,Ratio of BXA concentration to EC90,[3]; [6],× 213
same,Ratio of BXA concentration to Target concentration,[3]; [6],× 13.0
same,Ratio of BXA concentration to EC90,[3]; [7],× 3.5
same,Ratio of BXA concentration to Target concentration,[3]; [7],× 0.21
